Source: patent US6924414B2, “Muir-torre-like syndrome in Fhit deficient mice” (Thomas Jefferson University, priority 2000, dated 2005)
Where “and” joins values, the source holds several entries; their conditions need not be identical. Equal values may be shown once. Entries after “also recorded” stand apart in the source; their conditions may differ. Marks after values point to notes of the source that are not given here.

How the values were obtained:
Fhit +/− mice = assay: Carcinogenicity study: NMBA tumor induction in Fhit +/− mice; format: in vivo, mouse (C57BL/6J X 129/SvJ) F1
Experimental: (§1) (C57BL/6J X 129/SvJ) F1 mice (B6129F1s) that were Fhit +/+ or +/− were produced. 18 Fhit +/+ and 22 Fhit +/− mice (30-46 weeks) were given 8 intragastric doses of NMBA (Ash Stevens, Detroit, Mich.) over the course of 3 weeks at 2 mg/kg body weight. About half the mice were sacrificed six weeks after the final NMBA dose and the remaining mice at ten weeks. Tumor incidence differences were analyzed by two-tailed Fisher's exact test (Armitage and Berry, 1987, Statistical Methods in Medical Research, 2nd Ed., Blackwell Scientific, Oxford). For comparison, four untreated Fhit +/− mice (54-59 weeks old) and one untreated Fhit +/+ mouse (59 weeks old) were similarly autopsied. At autopsy, whole esophagi and stomachs were removed and opened longitudinally. Other tissues with apparent tumors were also examined. The number of animals bearing tumors in the esophagus, forestomach, squamocolumnar junction with the glandular stomach (SCJ) and other tissues were scored. Tissues were fixed in buffered formalin and examined histologically after hematoxylin and eosin (H&E) staining for the presence of hyperkeratosis, parakeratosis, dysplasia, papillomas, adenomas and carcinomas.

[1] = tested on: esophageal and forestomach tumors; conditions: administered by gavage or in the drinking water; cited from earlier work
Fhit +/+ mice = assay: Carcinogenicity study: NMBA tumor induction in Fhit +/+ mice; format: in vivo, mouse (C57BL/6J X 129/SvJ) F1
Experimental: as §1

Fhit exons 4 through 9 = assay: Fhit sequence analysis of NMBA-induced tumors; parameters: species or system mouse; conditions: DNA from sebaceous tumors of mice 21, 27, 31 and squamous papillomas of mice 25, 27
From the text: Primer pairs flanking each of the human FHIT exons (Druck et al., […], Cancer Res. 57:504-512) and the mouse FHIT coding exons were used in PCR amplification of DNA from MTS cases or mouse tumors, respectively. Primer pairs surrounding the mouse FHIT exons were previously published (Pekarsky et al., 1998, Cancer Res. 58:3401-3408) for exons 5 and 6 or newly designed […]
The products were purified with a PCR purification kit (Qiagen) before sequencing using Taq DyeDeoxy Terminator Cycle Sequencing Kits (ABI). Sequencing reaction products were electrophoresed and recorded on a 377 DNA sequencer (ABI). Southern Blot Analysis

[2] = Fhit +/−, individual mice, 10 weeks after NMBA, T = tumors
[3] = Fhit +/+, individual mice, 10 weeks after NMBA, T = tumors

## N-nitrosomethylbenzylamine [NMBA]
Fhit +/− mice; 6 wk post-treatment, Fhit +/−
  Fraction of tumor bearing animals, Fore stomach: 5/10
  Fraction of tumor bearing animals, SCJ: 4/10
  Tumor Bearing Mice: 7/10
Fhit +/− mice; 6 wk post-treatment, Fhit +/−, 1 esophagus showed dysplasia
  Fraction of tumor bearing animals, Esoph: 0/10^b
Fhit +/− mice; 10 wk post-treatment, Fhit +/−
  Fraction of tumor bearing animals, Esoph: 2/12
  Fraction of tumor bearing animals, Fore stomach: 10/12
  Fraction of tumor bearing animals, SCJ: 5/12
  Fraction of tumor bearing animals, Sebaceous: 7/12
  Tumor Bearing Mice: 12/12
Fhit +/− mice; Fhit +/−, individual mice, 10 weeks after NMBA
  Comments (by histology): sq. carcinoma forestomach, sq. pap. SCJ; also recorded: sq. pap. forestomach, Barretts-like gastric mucosa SCJ; also recorded: sq. pap. and adenoma forestomach; also recorded: sq. pap. and sq. carcinoma forestomach; also recorded: sq. pap. esoph, forestomach, SCJ; also recorded: sebaceous adnexal tumor; also recorded: sq. pap. esoph and forestomach, seb. tumor; also recorded: sq. pap. forestomach, sebaccous tumor; also recorded: hyperplastic gastric mucosa, SCJ sq. pap. seb. tumor; also recorded: forestomach sq. papillomas; sebaceous tumor
Fhit +/− mice; [2]
  Phenotype Forestomach: 2T and few sm. T and multiple T (3×) and T.2-3 mm
  Phenotype SCJ: few T; also recorded: multiple T
Fhit +/− mice; Fhit +/−, individual mice, 10 weeks after NMBA, given with ↑
  body wt. (amount of wt. change during the experiment): ↑3 g (2×) and ↑2 g (3×) and ↑4 g (4×) and ↑8 g (2×) and ↑6 g
Fhit +/− mice; NMBA treated Fhit +/− mice under 1 yr. of age
  Mice with large (>5×5 mm) sebaceous tumors: 5 of 12
Fhit +/− mice; autopsy at 10 weeks, Fhit +/−
  Mice with one or more subcutis tumors in abdominal, mammary or axial area on autopsy: more than 50%
Fhit +/− mice; by ten weeks after NMBA exposure, Fhit +/−
  Mice developing a spectrum of visceral and skin tumors: all
Fhit +/− mice; by ten weeks after the final dose, Fhit +/−
  Mice showing tumors in the subcutis of the abdomen (visible before autopsy): three
Fhit +/− mice; six weeks after treatment, Fhit +/−
  Mice showing one or more small tumors on inspection of whole esophagus and stomach: seven of ten
Fhit +/− mice; six weeks post NMBA, Fhit +/−, histology
  Mice with tumors: 70%
Fhit +/− mice; ten weeks post NMBA, Fhit +/−
  Tumor burden (mice exhibiting tumors): 100%
Fhit +/− mice; ten weeks, Fhit +/−, inspection
  Mice showing apparent tumors in forestomach, squamocolumnar junction and/or other tissues: eleven of twelve
[1]
  Tumor induction: induce both esophageal and forestomach tumors
Fhit +/+ mice; 6 wk post-treatment, Fhit +/+
  Fraction of tumor bearing animals, Fore stomach: 1/10
  Fraction of tumor bearing animals, SCJ: 0/10
  Tumor Bearing Mice: 2/10
Fhit +/+ mice; 6 wk post-treatment, Fhit +/+, number of mice with tumors/number of mice, 8 intragastric doses 2 mg/kg
  Fraction of tumor bearing animals, Esoph: 1/10
Fhit +/+ mice; 10 wk post-treatment, Fhit +/+
  Fraction of tumor bearing animals, Esoph: 0/8
  Fraction of tumor bearing animals, Fore stomach: 1/8
  Fraction of tumor bearing animals, SCJ: 1/8
  Fraction of tumor bearing animals, Sebaceous: 0/8
  Tumor Bearing Mice: 2/8
Fhit +/+ mice; Fhit +/+ mice
  Extragastric tumors: not observed
Fhit +/+ mice; Fhit +/+, individual mice, 10 weeks after NMBA
  Comments (by histology): sq papillomas; also recorded: papillary hyperplasia, esophagus; also recorded: adenoma
Fhit +/+ mice; [3]
  Phenotype Esoph.: thick
  Phenotype Forestomach: thick; also recorded: sm. T
  Phenotype SCJ: thick and 7T+3 mm
Fhit +/+ mice; Fhit +/+, individual mice, 10 weeks after NMBA, given with ↑
  body wt. (amount of wt. change during the experiment): ↑1 g and ↑4 g (3×) and ↑6 g and ↑3 g (2×) and ↑2 g
Fhit +/+ mice; NMBA treated Fhit +/+ mice
  Mice developing sebaceous tumors: none
Fhit +/+ mice; six weeks after NMBA, Fhit +/+
  Esophageal squamous papilloma by histological examination: 1/10
Fhit +/+ mice; six weeks after treatment, Fhit +/+
  Mice showing a very small tumor of the esophagus or forestomach on inspection: two of ten
Fhit +/+ mice; six weeks post NMBA, Fhit +/+, histology
  Mice with tumors: 20%
Fhit +/+ mice; ten weeks post NMBA, Fhit +/+
  Tumor burden (mice exhibiting tumors): 25%
Fhit +/+ mice; ten weeks, Fhit +/+
  Mice exhibiting tumors on inspection: two of eight
Fhit exons 4 through 9
  NMBA-induced mutations within Fhit exons 4 through 9: No mutations were detected
